Drawing on US20240226225A1 (Protagonist Therapeutics, Inc., priority 2021, published 2024), this text covers DC50 and IC50 for 9 molecules.

Starred links: 1 amine or outer side, 2 acyl side, 3 side chain; linkers in the order of their positions; H or OH if unused. Positions of bridges follow the written chain, without caps; N, C: chain ends. Non-standard residues stand in square brackets, D forms with d. Residues, ends and D or L forms follow the SMILES beside them. Groups on a side chain read outwards from the residue. *: point of attachment. CH3O(CH2CH2O)11CH2CH2CO = COCCOCCOCCOCCOCCOCCOCCOCCOCCOCCOCCOCCC(=O)*; PEG12 = NCCOCCOCCOCCOCCOCCOCCOCCOCCOCCOCCOCCOCCC(=O)O; Ala(1H-tetrazol-5-yl) = N[C@@H](Cc1nnn[nH]1)C(=O)O; C18 diacid = O=C(O)CCCCCCCCCCCCCCCCC(=O)*; Dip = N[C@H](C(=O)O)C(c1ccccc1)c1ccccc1; γGlu = O=C(O)[C@H](CCC(=O)[*:2])N[*:1]; Palmitoyl = CCCCCCCCCCCCCCCC(=O)*; β3hF = N[C@H](CC(=O)O)Cc1ccccc1; Isovaleryl = CC(C)CC(=O)*; AEEA = NCCOCCOCC(=O)O; X4 = O=C(CCC(F)(F)F)*; Ahx = NCCCCCC(=O)O

The target in assay [1] is T1, ferroportin (Homo sapiens, UniProt Q9NP59).
T1 sequence (Q9NP59 1-571): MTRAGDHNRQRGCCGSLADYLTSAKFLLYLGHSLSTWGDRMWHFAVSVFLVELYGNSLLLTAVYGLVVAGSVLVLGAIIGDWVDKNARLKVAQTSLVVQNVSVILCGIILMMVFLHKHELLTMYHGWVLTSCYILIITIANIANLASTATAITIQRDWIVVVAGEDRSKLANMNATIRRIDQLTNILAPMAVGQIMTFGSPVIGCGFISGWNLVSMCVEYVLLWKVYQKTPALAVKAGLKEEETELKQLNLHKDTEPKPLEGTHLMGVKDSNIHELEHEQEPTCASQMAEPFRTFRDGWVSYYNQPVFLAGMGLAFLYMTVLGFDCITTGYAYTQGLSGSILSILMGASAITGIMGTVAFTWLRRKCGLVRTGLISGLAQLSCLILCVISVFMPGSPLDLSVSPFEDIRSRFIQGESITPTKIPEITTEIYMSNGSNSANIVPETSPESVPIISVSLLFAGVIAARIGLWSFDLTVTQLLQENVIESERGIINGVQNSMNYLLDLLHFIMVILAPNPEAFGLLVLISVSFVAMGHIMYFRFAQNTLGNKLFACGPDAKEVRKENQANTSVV
In words: FPN activity assay: internalization/degradation of ferroportin-GFP in stably transfected HEK293 cells, decrease in GFP fluorescence. The class given is cell-based. Details: expressed in transfected cells. The settings on record: HEK293 cells stably expressing ferroportin-GFP, at least 18 hours incubation; read-out: FPN EC50.

Assay [2] addresses T1, ferroportin. The assay can be described thus: T47D cell-based ferroportin internalization assay in presence of 0.5% mouse serum albumin (MSA), AF647-conjugated detection peptide, flow cytometry. The settings on record: T47D cells, 1 hr incubation. Details: a human breast carcinoma adherent cell line which endogenously expresses ferroportin; host or cells: T47D. The protocol:
The potency of the peptides in causing ferroportin internalization was evaluated in a T47D cell-based assay. […] In this internalization assay, the potency of the test peptides was evaluated in presence of serum albumin which is the main protein component in the blood. T47D cells were maintained in RPMI media (containing required amount of fetal bovine serum) and regularly sub-cultured. In preparation for the assay, the cells were seeded in 96-well plates at a density of 80-100 k cells per well in 100 ul volume and allowed to rest overnight. On the next day, test peptides were first prepared in dilution series (10-point series, starting concentration of ˜5 μM, typically 3-4×fold dilution steps), all with 0.5% mouse serum albumin (MSA purified from mouse serum; Sigma, A3139). The test peptide dilution series were allowed to incubate at room temperature for 30 min. Then the media was aspirated from the 96-well cell plate and test peptide dilution series were added. After 1 hr incubation, the media with test peptides was aspirated out and AF647-conjugated detection peptide was added at fixed concentration of 200 nM. The AF647-conjugated detection peptide was previously verified to bind to ferroportin and cause its internalization. The cells were washed again after a 2 hr incubation in preparation for flow cytometry analysis. The Median Fluorescence Intensity (MFI) of the AF647-positive population was measured (after removing dead cells and non-singlets from the analysis). The MFI values were used to generate a dose-response curve and obtain IC50 potencies for the test peptides. The IC50 potencies were calculated by using 4-parameter non-linear fitting function in Graphpad Prism (Table 2A).
Background: A flow cytometer gives signals particle by particle.

For the molecule `CC[C@H](C)[C@@H]1NC(=O)[C@@H](NC(=O)[C@@H]2CCCN2C(=O)[C@@H](NC(=O)[C@H](Cc2c[nH]cn2)NC(=O)[C@@H](NC(=O)[C@H](Cc2nn[nH]n2)NC(=O)C(C)(C)Br)[C@@H](C)O)C(c2ccccc2)c2ccccc2)CSSC[C@@H](C(N)=O)NC(=O)[C@@H](CCCCN)NC(=O)C[C@H](Cc2ccccc2)NC(=O)[C@H](CCCCNC(=O)COCCOCCNC(=O)COCCOCCNC(=O)CC[C@H](NC(=O)CCCCCCCCCCCCCCCCC(=O)O)C(=O)O)NC1=O` [Compd 46, Propanoic_Acid_2Me2Br-[Tet1]-T-H-[Dpa]-P-[Cys]-I-[Lys(1PEG2_1PEG2_IsoGlu_C18_Diacid)]-[bhPhe]-[(D)Lys]-[Cys]-NH2], the DC50 at ferroportin [1] lay in the range of 10 to 100 nM. Moreover, the IC50 (in general, the point on the concentration scale where inhibition reaches its midpoint) on ferroportin [2] fell in the range of 10 to 100 nM.
Regarding `CCCCCCCCCCCCCCCC(=O)NCCCCCC(=O)NCCCC[C@@H]1NC(=O)C[C@H](Cc2ccccc2)NC(=O)[C@@H](CCCCNC(=O)CCOCCOCCOCCOCCOCCOCCOCCOCCOCCOCCOCCOC)NC(=O)[C@H]([C@@H](C)CC)NC(=O)[C@@H](NC(=O)[C@@H]2CCCN2C(=O)[C@@H](NC(=O)[C@H](Cc2c[nH]cn2)NC(=O)[C@@H](NC(=O)[C@H](Cc2nn[nH]n2)NC(=O)CC(C)C)[C@@H](C)O)C(c2ccccc2)c2ccccc2)CSSC[C@@H](C(N)=O)NC(=O)[C@@H](CCCCNC(=O)CCOCCOCCOCCOCCOCCOCCOCCOCCOCCOCCOCCOC)NC1=O` [Compd 50, Isovaleric Acid-[Tet1]-T-H-[Dpa]-P-[Cys]-I-[(DLys(PEG11_OMe-[bhPhe]-[Lys(Ahx_Palm)]-[(D)Lys(PEG11_OMe)]-[Cys]-NH2] (Isovaleryl-[Ala(1H-tetrazol-5-yl)]TH[Dip]PCI[dK](CH3O(CH2CH2O)11CH2CH2CO)[β3hF]K([Ahx-Palmitoyl])[dK](CH3O(CH2CH2O)11CH2CH2CO)C-NH2; disulfide 6-12), on ferroportin [1], the DC50 was 10 to 100 nM. In addition, the IC50 on ferroportin [2] was in the range of 1 to 10 nM.
As for `CC[C@H](C)[C@@H]1NC(=O)[C@@H](NC(=O)[C@@H]2CCCN2C(=O)[C@@H](NC(=O)[C@H](Cc2c[nH]cn2)NC(=O)[C@@H](NC(=O)[C@H](Cc2nn[nH]n2)NC(=O)CC(C)C(F)(F)F)[C@@H](C)O)C(c2ccccc2)c2ccccc2)CSSC[C@@H](C(N)=O)NC(=O)[C@@H](CCCCN)NC(=O)C[C@H](Cc2ccccc2)NC(=O)[C@H](CCCCNC(=O)COCCOCCNC(=O)COCCOCCNC(=O)CC[C@H](NC(=O)CCCCCCCCCCCCCCCCC(=O)O)C(=O)O)NC1=O` (stereo partly drawn) [Compd 45, Butyric_Acid_3CF3-[Tet1]-T-H-[Dpa]-P-[Cys]-I-[Lys(1PEG2_1PEG2_IsoGlu_C18_Diacid)]-[bhPhe]-[(D)Lys]-[Cys]-NH2], the DC50 on ferroportin [1] lay in the range of 10 to 100 nM. At ferroportin [2], the IC50 fell in the range of 100 to 500 nM.
For `CCCCCCCCCCCCCCCC(=O)NCCOCCOCCOCCOCCOCCOCCOCCOCCOCCOCCOCCOCCC(=O)NCCCC[C@@H]1NC(=O)[C@H]([C@@H](C)CC)NC(=O)[C@@H](NC(=O)[C@@H]2CCCN2C(=O)[C@@H](NC(=O)[C@H](Cc2c[nH]cn2)NC(=O)[C@@H](NC(=O)[C@H](Cc2nn[nH]n2)NC(=O)CC(C)C)[C@@H](C)O)C(c2ccccc2)c2ccccc2)CSSC[C@@H](C(N)=O)NC(=O)[C@@H](CCCCN)NC(=O)C[C@H](Cc2ccccc2)NC1=O` [Compd 1, Isovaleric Acid-[Tet1]-T-H-[Dpa]-P-[Cys]-I-[Lys(PEG12_Palm)]-[bhPhe]-[(D)Lys]-[Cys]-NH2] (Isovaleryl-[Ala(1H-tetrazol-5-yl)]TH[Dip]PCIK([PEG12-Palmitoyl])[β3hF][dK]C-NH2; disulfide 6-11), the DC50 on ferroportin [1] fell in the range of 10 to 100 nM. Also, the concentration for half-maximal inhibition (IC50) at ferroportin [2] fell in the range of 1 to 10 nM.
With `CC[C@H](C)[C@@H]1NC(=O)[C@@H](NC(=O)[C@@H]2CCCN2C(=O)[C@@H](NC(=O)[C@H](Cc2c[nH]cn2)NC(=O)[C@@H](NC(=O)[C@H](Cc2nn[nH]n2)NC(=O)CC(C)C)[C@@H](C)O)C(c2ccccc2)c2ccccc2)CSSC[C@@H](C(N)=O)NC(=O)[C@@H](CCCCN)NC(=O)C[C@H](Cc2ccccc2)NC(=O)[C@H](CCCCNC(=O)COCCOCCNC(=O)COCCOCCNC(=O)CC[C@H](NC(=O)CCCCCCCCCCCCCCCCC(=O)O)C(=O)O)NC1=O` [Compd 40, Isovaleric Acid-[Tet1]-T-H-[Dpa]-P-[Cys]-I-[Lys(1PEG2_1PEG2_IsoGlu_C18_Diacid)]-[bhPhe]-[(D)Lys]-[Cys]-NH2] (Isovaleryl-[Ala(1H-tetrazol-5-yl)]TH[Dip]PCIK([AEEA-AEEA-γGlu-C18 diacid])[β3hF][dK]C-NH2; disulfide 6-11), the DC50 on ferroportin [1] was 10 to 100 nM. Moreover, the IC50 at ferroportin [2] was in the range of 10 to 100 nM.
Turning to `CC[C@H](C)[C@@H]1NC(=O)[C@@H](NC(=O)[C@@H]2CCCN2C(=O)[C@@H](NC(=O)[C@H](Cc2c[nH]cn2)NC(=O)[C@@H](NC(=O)[C@H](Cc2nn[nH]n2)NC(=O)CCC(F)(F)F)[C@@H](C)O)C(c2ccccc2)c2ccccc2)CSSC[C@@H](C(N)=O)NC(=O)[C@@H](CCCCN)NC(=O)C[C@H](Cc2ccccc2)NC(=O)[C@H](CCCCNC(=O)COCCOCCNC(=O)COCCOCCNC(=O)CC[C@H](NC(=O)CCCCCCCCCCCCCCCCC(=O)O)C(=O)O)NC1=O` [Compd 47, TriF_Butyric_Acid-[Tet1]-T-H-[Dpa]-P-[Cys]-I-[Lys(1PEG2_1PEG2_IsoGlu_C18_Diacid)]-[bhPhe]-[(D)Lys]-[Cys]-NH2] (X4-[Ala(1H-tetrazol-5-yl)]TH[Dip]PCIK([AEEA-AEEA-γGlu-C18 diacid])[β3hF][dK]C-NH2; disulfide 6-11), the DC50 at ferroportin [1] was in the range of 10 to 100 nM. For the same molecule, the IC50 on ferroportin [2] was 100 to 500 nM.
In the case of `CC[C@H](C)[C@@H]1NC(=O)[C@@H](NC(=O)[C@@H]2CCCN2C(=O)[C@@H](NC(=O)[C@H](Cc2cnc[nH]2)NC(=O)[C@@H](NC(=O)[C@H](CC2N=NN=N2)NC(=O)CC(C)C)[C@@H](C)O)C(c2ccccc2)c2ccccc2)CSSC[C@@H](C(N)=O)NC(=O)[C@@H](CCCCN)NC(=O)C[C@H](Cc2ccccc2)NC(=O)[C@H](CCCCNC(=O)COCCOCCNC(=O)COCCOCCNC(=O)[C@H](CN)NC(=O)CCCCCCCCCCCCCCCCC(=O)O)NC1=O` [Compd 53, Isovaleric_Acid-[Tet1]-T-H-[Dpa]-P-[Cys]-I-[Lys(1PEG2_1PEG2_Dap_C18_Diacid)]-[bhphe]-[(D)Lys]-[Cys]-NH2], the DC50 on ferroportin [1] is 10 to 100 nM. The IC50 on ferroportin [2] fell in the range of 10 to 100 nM.
Turning to `CC[C@H](C)[C@@H]1NC(=O)[C@@H](NC(=O)[C@@H]2CCCN2C(=O)[C@@H](NC(=O)[C@H](Cc2cnc[nH]2)NC(=O)[C@@H](NC(=O)[C@H](CC2N=NN=N2)NC(=O)CC(C)C)[C@@H](C)O)C(c2ccccc2)c2ccccc2)CSSC[C@@H](C(N)=O)NC(=O)[C@@H](CCCCN)NC(=O)C[C@H](Cc2ccccc2)NC(=O)[C@H](CCCCNC(=O)COCCOCCNC(=O)COCCOCCNC(=O)CCCCCNC(=O)CCCCCCCCCCCCCCCCC(=O)O)NC1=O` [Compd 51, Isovaleric Acid-[Tet1]-T-H-[Dpa]-P-[Cys]-I-[Lys(1PEG2_1PEG2_Ahx_C18_Diacid)]-[bhPhe]-[(D)Lys]-[Cys]-NH2], at ferroportin [1], the DC50 fell in the range of 10 to 100 nM. In addition, the IC50 on ferroportin [2] lay within 10 to 100 nM.
`CC[C@H](C)[C@@H]1NC(=O)[C@@H](NC(=O)[C@@H]2CCCN2C(=O)[C@@H](NC(=O)[C@H](Cc2c[nH]cn2)NC(=O)[C@@H](NC(=O)[C@H](Cc2nn[nH]n2)NC(=O)CC(C)C)[C@@H](C)O)C(c2ccccc2)c2ccccc2)CSSC[C@H](C(N)=O)NC(=O)C[C@H](Cc2ccccc2)NC(=O)[C@H](CCCCNC(=O)COCCOCCNC(=O)COCCOCCNC(=O)CC[C@H](NC(=O)CCCCCCCCCCCCCCCCC(=O)O)C(=O)O)NC1=O` [Compd 36, Isovaleric Acid-[Tet1]-T-H-[Dpa]-P-[Cys]-I-[Lys(1PEG2_1PEG2_IsoGlu_C18_Diacid)]-[bhPhe]-d[Cys]-NH2] (Isovaleryl-[Ala(1H-tetrazol-5-yl)]TH[Dip]PCIK([AEEA-AEEA-γGlu-C18 diacid])[β3hF][dC]-NH2; disulfide 6-10): the DC50 on ferroportin [1] lay in the range of 10 to 100 nM. On ferroportin [2], the IC50 was 100 to 500 nM.
